Values of other authors in US20080057123A1, “Controlled Release Formulations” (Jagotec AG, priority 2006, published 2008).

solubility in ethanol (ethanol): soluble
solubility in water (water): practically insoluble
Structure (SMILES): COC(=O)C1=C(C)NC(C)=C(C(=O)OCC(C)C)C1c1ccccc1[N+](=O)[O-] (centres unmarked) [Nisoldipine]
